{
  "source": "patent US20240417410A1",
  "about": "“TRICYCLIC COMPOUNDS FOR THE TREATMENT OF CANCER” (Hoffmann-La Roche Inc., priority 2023, published 2024)",
  "key": {"[1]": {"tested_on": "WT HRAS-BRAF complex", "test": "WT HRAS-BRAF with CYPA interaction assay (TR-FRET)", "assay_type": "biochemical", "experimental": "(§1) In this example, TR-FRET was used to measure the compound or compound-CYPA dependent disruption of the KRAS G12V-BRAF complex to assess inhibition efficacy. The IC50 ratio between WT KRAS/HRAS/NRAS and KRAS G12V mutant was calculated as selective index, which indicated tolerability and safety profile. Disruption of WT KRAS/HRAS/NRAS-BRAF complex by compounds was detected respectively. In assay buffer containing 25 mM HEPES (PH-7.4,4-(2-hydroxyethyl)-1-piperazineethanesulfonic acid, Thermo, 15630080), 0.002% Tween20, 0.1% BSA, 100 mM NaCl, 5 mM MgCl2, 10 μM GMPPNP (Guanosine 5′-[β,γ-imido]triphosphate trisodium salt hydrate, Sigma, G0635), tagless CYPA and GMPPNP loaded 6His-RAS proteins, and GST-BRAF^RBD were mixed in a well of a 384-well assay plate at final concentrations of 50 nM, 6.25 nM and 1 nM, respectively. Compound was present in plate wells as a 16-point 3-fold dilution series starting at a final concentration of 10 μM and incubated for 3 hours. A mixture of MAb Anti-6His-XL665 (Cisbio, 61HISXLB) and Mab anti-GST-TB cryptate (Cisbio, 61GSTTLB) was then added at a final concentration of 6.67 nM and 0.21 nM, respectively, and the plate was incubated for an additional 1.5 hours. TR-FRET signal was read on a PHERstar FSX microplate reader (Ex320 nm, Em 665/615 nm). Compounds that facilitate disruption of the RAS-BRAF complex were identified as those eliciting a decrease in the TR-FRET ratio relative to DMSO control wells."}, "[2]": {"tested_on": "WT KRAS-BRAF complex", "test": "WT KRAS-BRAF with CYPA interaction assay (TR-FRET)", "assay_type": "biochemical", "experimental": "as §1"}, "[3]": {"biological_target": "KRAS G12C-BRAF complex (Homo sapiens (Human), UniProt P01116+P62937, G12C)", "sequence (P01116-2 other isoform, or with tags, fused parts or gaps G12C)": "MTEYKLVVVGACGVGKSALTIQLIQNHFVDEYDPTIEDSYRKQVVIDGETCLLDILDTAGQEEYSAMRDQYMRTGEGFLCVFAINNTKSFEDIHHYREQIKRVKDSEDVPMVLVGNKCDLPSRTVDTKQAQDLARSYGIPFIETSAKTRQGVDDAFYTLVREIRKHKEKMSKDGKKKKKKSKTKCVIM", "sequence (P62937 whole entry)": "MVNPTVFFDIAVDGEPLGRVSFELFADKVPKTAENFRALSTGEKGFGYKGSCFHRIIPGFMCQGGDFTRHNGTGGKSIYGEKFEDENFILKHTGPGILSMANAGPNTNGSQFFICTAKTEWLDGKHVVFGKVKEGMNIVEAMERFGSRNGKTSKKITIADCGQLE", "test": "KRAS-BRAF with CYPA (500 nM) interaction assay (TR-FRET, Example 136)", "assay_type": "biochemical", "conditions": "KRAS G12C-BRAF disruption"}, "[4]": {"tested_on": "DUSP6", "test": "Brain metastasis intracranial model, PD (DUSP6 in brain, qPCR)", "assay_type": "in vivo, mouse", "conditions": "30 mg/kg once daily for 14 days, 6 hours post last dose, NCI-H1373-Luc model", "experimental": "Example 24, formulated in 10% DMSO, 10% Solutol HS15, 80% water, was dosed orally to 7-9 weeks female BALB/c nude mice (Vital River Co., LTD.) in […] at 30 mg/kg (dosing volume of 10 ml/kg) once daily for 14 days. Terminal tissue and blood harvest was performed at 6 hours after post last dose of test articles, using 4 mice per group. In brief, whole blood was collected into K2-EDTA tubes and subjected to centrifugation to separate plasma. Brains were collected, rinsed, and homogenized. Mice Brain were analyzed using qPCR using DUSP6 and ACTB TaqMan probes (ABI-4369016, ABI-4351370). All the targets mRNA expression levels were normalized to the housekeeping gene, and the data were represented as fold-changes according to the 2-ΔΔCt method, where […] and ΔΔCt=ΔCt treatment-ΔCt reference, ΔCt reference was chosen as the vehicle group. The data were interpreted by GraphPad Prism, and statistical analysis of difference in the each targets mRNA expression among the groups were conducted. For comparison between two groups, an independent sample t-test will be used. For comparison among three or more groups, a one-way ANOVA (Dunnett's multiple comparisons test) will be performed, p<0.05 was considered to be statistically significant."}},
  "data": [
    {"smiles": "CO[C@@H](C)c1ncc(N2CCN(C)CC2)cc1-c1c2c3cc(cc4c3n1CCC4)-c1csc(n1)C[C@H](NC(=O)[C@H]1[C@H](C)[C@@H]1C)C(=O)N1CCC[C@H](N1)C(=O)OCC(C)(C)C2", "note": "(atropisomer, axis not shown; (M)) [Example 24, (1r,2R,3S)-N-[(7S,13S)-(20M)-20-[2-[(1S)-1-methoxyethyl]-5-(4-methylpiperazin-1-yl)-3-pyridyl]-17,17-dimethyl-8,14-dioxo-15-oxa-4-thia-9,21,30,31-tetrazahexacyclo[23.3.1.1^2,5.1^9,13.0^19,27.0^21,26]hentriaconta-1 (28),2,5 (31), 19,25 (29),26-hexaen-7-yl]-2,3-dimethyl-cyclopropanecarboxamide]", "values": [
      {"measurement": "Selectivity Index (IC50 ratio) WT HRAS/KRAS G12V", "setting": "[1]", "value": 5.4},
      {"measurement": "Selectivity Index (IC50 ratio) WT KRAS/KRAS G12V", "setting": "[2]", "value": 4.6},
      {"measurement": "IC50", "setting": "[3]", "value": 9.7, "unit": "nM"},
      {"measurement": "MAPK activation (DUSP6) in the brain", "setting": "[4]", "value": "significantly decreased"}
    ]}
  ]
}
